The text below walks through data of article PMC5218480 (PLoS ONE, 2017).

This experiment has as its system MV-4-11 cells. The experiment can be described thus: Gene expression microarray analysis (Affymetrix PrimeView) and GSEA. It counts as cell-based, human. Further details: RFU PODN (11730768_x_at) / Fold change /veh PODN (11730768_x_at) / RFU LINC00158 (11744669_a_at) / Fold change /veh LINC00158 (11744669_a_at) / RFU DUSP10 (11751237_a_at) / Fold change /veh DUSP10 (11751237_a_at) / RFU ID3 (11757404_x_at) / Fold change /veh ID3 (11757404_x_at) / RFU PLEKHG5 (11737974_s_at) / Fold change /veh PLEKHG5 (11737974_s_at) / RFU LRRC4B (11730491_at) / Fold change /veh LRRC4B (11730491_at) / RFU GIMAP4 (11747438_a_at) / Fold change /veh GIMAP4 (11747438_a_at) / RFU KRT8 (11758183_x_at) / Fold change /veh KRT8 (11758183_x_at) / RFU CNN1 (11734310_a_at) / Fold change /veh CNN1 (11734310_a_at) / RFU VPS37D (11726825_at) / Fold change /veh VPS37D (11726825_at) / RFU C10orf10 (11716522_x_at) / Fold change /veh C10orf10 (11716522_x_at) / RFU KIR2DL2 /// KIR2DL4 /// KIR2DL5A /// KIR2DL5B /// KIR2DS1 /// KIR2DS2 /// KIR2DS3 /// KIR2DS4 /// KIR3DL3 /// KIR3DL3 /// KIR3DS1 (11738374_at) / Fold change /veh KIR2DL2 /// KIR2DL4 /// KIR2DL5A /// KIR2DL5B /// KIR2DS1 /// KIR2DS2 /// KIR2DS3 /// KIR2DS4 /// KIR3DL3 /// KIR3DL3 /// KIR3DS1 (11738374_at) / RFU C1QL1 (11718748_at) / Fold change /veh C1QL1 (11718748_at) / RFU TMPRSS4 (11747572_a_at) / Fold change /veh TMPRSS4 (11747572_a_at) / RFU HAMP (11756126_x_at) / Fold change /veh HAMP (11756126_x_at) / RFU RNFT2 (11725882_a_at) / Fold change /veh RNFT2 (11725882_a_at) / RFU NR4A2 (11747474_a_at) / Fold change /veh NR4A2 (11747474_a_at) / RFU ABCC12 (11746883_a_at) / Fold change /veh ABCC12 (11746883_a_at) / RFU TMEM136 (11760407_x_at) / Fold change /veh TMEM136 (11760407_x_at) / RFU CLDN22 /// WWC2 (11732394_at) / Fold change /veh CLDN22 /// WWC2 (11732394_at) / RFU HLA-DPB1 (11760878_x_at) / Fold change /veh HLA-DPB1 (11760878_x_at) / RFU SPINT1 (11716480_a_at) / Fold change /veh SPINT1 (11716480_a_at) / RFU GAP43 (11754022_s_at) / Fold change /veh GAP43 (11754022_s_at) / RFU A4GNT (11735810_at) / Fold change /veh A4GNT (11735810_at) / RFU PRB3 (11715151_x_at) / Fold change /veh PRB3 (11715151_x_at) / RFU TUBB4B (11761932_at) / Fold change /veh TUBB4B (11761932_at) / RFU CAPN14 (11732068_a_at) / Fold change /veh CAPN14 (11732068_a_at) / RFU TMCC2 (11721928_a_at) / Fold change /veh TMCC2 (11721928_a_at) / RFU IRGQ (11745062_a_at) / Fold change /veh IRGQ (11745062_a_at) / RFU FAM174B (11720279_a_at) / Fold change /veh FAM174B (11720279_a_at) / RFU TMPRSS4 (11748680_a_at) / Fold change /veh TMPRSS4 (11748680_a_at) / RFU FAM212B (11763350_a_at) / Fold change /veh FAM212B (11763350_a_at) / RFU PLEKHG5 (11743358_a_at) / Fold change /veh PLEKHG5 (11743358_a_at) / RFU ZSCAN30 (11745921_a_at) / Fold change /veh ZSCAN30 (11745921_a_at) / RFU CMKLR1 (11741424_a_at) / Fold change /veh CMKLR1 (11741424_a_at) / RFU LOC101060620 /// MAPK8IP1 (11723275_at) / Fold change /veh LOC101060620 /// MAPK8IP1 (11723275_at) / RFU SPTSSB (11747773_x_at) / Fold change /veh SPTSSB (11747773_x_at) / RFU PRSS12 (11739890_at) / Fold change /veh PRSS12 (11739890_at) / RFU BIN1 (11741810_x_at) / Fold change /veh BIN1 (11741810_x_at) / RFU WNT11 (11732464_a_at) / Fold change /veh WNT11 (11732464_a_at) / RFU C10orf10 (11716521_a_at) / Fold change /veh C10orf10 (11716521_a_at) / RFU C5orf56 (11738089_at) / Fold change /veh C5orf56 (11738089_at) / RFU CYB561 (11721691_x_at) / Fold change /veh CYB561 (11721691_x_at) / RFU ANKRD19P (11752326_a_at) / Fold change /veh ANKRD19P (11752326_a_at) / RFU OR2T12 /// OR2T33 /// OR2T8 (11738714_s_at) / Fold change /veh OR2T12 /// OR2T33 /// OR2T8 (11738714_s_at) / RFU VCAN (11748164_a_at) / Fold change /veh VCAN (11748164_a_at) / RFU JSRP1 (11732532_at) / Fold change /veh JSRP1 (11732532_at) / RFU KRTAP10-11 (11738290_x_at) / Fold change /veh KRTAP10-11 (11738290_x_at) / RFU MYO3A (11730013_a_at) / Fold change /veh MYO3A (11730013_a_at) / RFU EBF3 (11725865_a_at) / Fold change /veh EBF3 (11725865_a_at) / RFU CAMK2N1 (11719241_x_at) / Fold change /veh CAMK2N1 (11719241_x_at) / RFU C5orf56 (11738088_a_at) / Fold change /veh C5orf56 (11738088_a_at) / RFU OLFML3 (11715873_a_at) / Fold change /veh OLFML3 (11715873_a_at) / RFU LOC100653217 /// NTM (11731650_a_at) / Fold change /veh LOC100653217 /// NTM (11731650_a_at) / RFU MAPK11 (11762145_a_at) / Fold change /veh MAPK11 (11762145_a_at) / RFU FIZ1 (11724087_x_at) / Fold change /veh FIZ1 (11724087_x_at) / RFU OASL (11726364_x_at) / Fold change /veh OASL (11726364_x_at) / RFU SOX15 (11748057_x_at) / Fold change /veh SOX15 (11748057_x_at) / RFU CD79A (11719716_a_at) / Fold change /veh CD79A (11719716_a_at) / RFU HIST1H1D (11736915_at) / Fold change /veh HIST1H1D (11736915_at) / RFU CASKIN2 (11723855_a_at) / Fold change /veh CASKIN2 (11723855_a_at) / RFU LOC730098 (11760151_x_at) / Fold change /veh LOC730098 (11760151_x_at) / RFU OR4N2 (11742367_at) / Fold change /veh OR4N2 (11742367_at) / RFU PRRT2 (11749266_a_at) / Fold change /veh PRRT2 (11749266_a_at) / RFU SNX32 (11753110_a_at) / Fold change /veh SNX32 (11753110_a_at) / RFU CDHR5 (11726645_a_at) / Fold change /veh CDHR5 (11726645_a_at) / RFU RCAN1 (11760418_a_at) / Fold change /veh RCAN1 (11760418_a_at) / RFU FAM167A (11723789_a_at) / Fold change /veh FAM167A (11723789_a_at) / RFU FAM26E (11764081_at) / Fold change /veh FAM26E (11764081_at) / RFU ISYNA1 (11749810_s_at) / Fold change /veh ISYNA1 (11749810_s_at) / RFU ACY1 (11761880_at) / Fold change /veh ACY1 (11761880_at) / RFU 11764098_at / Fold change /veh 11764098_at / RFU SAMD14 (11745864_x_at) / Fold change /veh SAMD14 (11745864_x_at) / RFU NPB (11741838_a_at) / Fold change /veh NPB (11741838_a_at) / RFU TMPRSS6 (11731388_a_at) / Fold change /veh TMPRSS6 (11731388_a_at) / RFU KRTAP10-2 (11738614_at) / Fold change /veh KRTAP10-2 (11738614_at) / RFU ARHGAP8 /// PRR5-ARHGAP8 (11727945_x_at) / Fold change /veh ARHGAP8 /// PRR5-ARHGAP8 (11727945_x_at) / RFU KRTAP5-7 /// NADSYN1 (11734609_at) / Fold change /veh KRTAP5-7 /// NADSYN1 (11734609_at) / RFU RASL12 (11751679_a_at) / Fold change /veh RASL12 (11751679_a_at) / RFU CDKN2B (11736163_a_at) / Fold change /veh CDKN2B (11736163_a_at) / RFU PRF1 (11729649_at) / Fold change /veh PRF1 (11729649_at) / RFU, ZNF638 /// ZNF638-IT1 / Fold change vs veh, ZNF638 /// ZNF638-IT1 / RFU, PANK3 / Fold change vs veh, PANK3 / RFU, SH3YL1 / Fold change vs veh, SH3YL1 / RFU, ZEB2 / Fold change vs veh, ZEB2 / RFU, NRIP1 / Fold change vs veh, NRIP1 / RFU, PTTG1IP / Fold change vs veh, PTTG1IP / RFU, CAPN2 / Fold change vs veh, CAPN2 / RFU, MED14 / Fold change vs veh, MED14 / RFU, SNORA58 / Fold change vs veh, SNORA58 / RFU, C1orf63 / Fold change vs veh, C1orf63 / RFU, LRRFIP1 / Fold change vs veh, LRRFIP1 / RFU, NDUFAF7 / Fold change vs veh, NDUFAF7 / RFU, SLC12A2 / Fold change vs veh, SLC12A2 / RFU, IBTK / Fold change vs veh, IBTK / RFU, ESF1 / Fold change vs veh, ESF1 / Fold change vs veh, TMEM50B / RFU, TAOK1 / Fold change vs veh, TAOK1 / RFU, ACBD3 / Fold change vs veh, ACBD3 / RFU, TMA16 / Fold change vs veh, TMA16 / RFU, RWDD3 / Fold change vs veh, RWDD3 / RFU, BCAT1 / Fold change vs veh, BCAT1 / RFU, EDEM3 / Fold change vs veh, EDEM3 / RFU, TMEM33 / Fold change vs veh, TMEM33 / RFU, WDR75 / Fold change vs veh, WDR75 / RFU, AHCTF1 / Fold change vs veh, AHCTF1 / RFU, TFRC / Fold change vs veh, TFRC / RFU, ZDHHC17 / Fold change vs veh, ZDHHC17 / RFU, NOM1 / Fold change vs veh, NOM1 / RFU, ARL8B / Fold change vs veh, ARL8B / RFU, ZBTB11 / Fold change vs veh, ZBTB11 / RFU, TAMM41 / Fold change vs veh, TAMM41 / RFU, KIAA1704 /// LOC100996395 / Fold change vs veh, KIAA1704 /// LOC100996395 / RFU, ING1 / Fold change vs veh, ING1 / RFU, TRMT61B / Fold change vs veh, TRMT61B / RFU, FUBP3 / Fold change vs veh, FUBP3 / RFU, TP53 / Fold change vs veh, TP53 / RFU, TNKS2 / Fold change vs veh, TNKS2 / RFU, ZFP14 / Fold change vs veh, ZFP14 / RFU, ACTR2 / Fold change vs veh, ACTR2 / RFU, PPP3R1 / Fold change vs veh, PPP3R1 / RFU, PIK3R1 / Fold change vs veh, PIK3R1 / RFU, HNRNPA1 / Fold change vs veh, HNRNPA1 / RFU, RNF170 / Fold change vs veh, RNF170 / RFU, ZNF28 / Fold change vs veh, ZNF28 / RFU, RNGTT / Fold change vs veh, RNGTT / RFU, OGT / Fold change vs veh, OGT / RFU, BRD1 / Fold change vs veh, BRD1 / RFU, MARS / Fold change vs veh, MARS / RFU, ZNF655 / Fold change vs veh, ZNF655 / RFU, FAHD1 / Fold change vs veh, FAHD1 / RFU, BDP1 / Fold change vs veh, BDP1 / RFU, LRRCC1 / Fold change vs veh, LRRCC1 / RFU, ARID1A / Fold change vs veh, ARID1A / RFU, ZNF146 / Fold change vs veh, ZNF146 / RFU, ZNF330 / Fold change vs veh, ZNF330 / RFU, GPN3 / Fold change vs veh, GPN3 / RFU, C9orf123 / Fold change vs veh, C9orf123 / RFU, N4BP2L2 / Fold change vs veh, N4BP2L2 / RFU, ARFIP1 / Fold change vs veh, ARFIP1 / RFU, FAM179B / Fold change vs veh, FAM179B / RFU, BCL10 / Fold change vs veh, BCL10 / RFU, UHRF1BP1L / Fold change vs veh, UHRF1BP1L / RFU, BET1 / Fold change vs veh, BET1 / RFU, CNOT2 / Fold change vs veh, CNOT2 / RFU, ZNF268 / Fold change vs veh, ZNF268 / Fold change vs veh, ZNF507 / RFU, DGCR2 / Fold change vs veh, DGCR2 / RFU, WDSUB1 / Fold change vs veh, WDSUB1 / Fold change vs veh, HSP90B1 /// MIR3652 / RFU, ADSS / Fold change vs veh, ADSS / RFU, GK / Fold change vs veh, GK / RFU, ZNF148 / Fold change vs veh, ZNF148 / RFU, TAF9 / Fold change vs veh, TAF9 / RFU, SLC1A5 / Fold change vs veh, SLC1A5 / RFU, SLMO2 / Fold change vs veh, SLMO2 / RFU, ABCC4 / Fold change vs veh, ABCC4 / RFU, LOC101060439 /// RAP1B / Fold change vs veh, LOC101060439 /// RAP1B / RFU, RFX7 / Fold change vs veh, RFX7 / RFU, GTPBP10 / Fold change vs veh, GTPBP10 / RFU, CNEP1R1 / Fold change vs veh, CNEP1R1 / RFU, BIVM-ERCC5 /// ERCC5 / Fold change vs veh, BIVM-ERCC5 /// ERCC5 / RFU, ILF3 / Fold change vs veh, ILF3 / RFU 11762660_at / Fold change /veh 11762660_at / RFU VCAN (11757783_s_at) / Fold change /veh VCAN (11757783_s_at) / RFU DDX43 (11728927_at) / Fold change /veh DDX43 (11728927_at) / RFU KRT8 (11758188_x_at) / Fold change /veh KRT8 (11758188_x_at) / RFU NKD1 (11759106_at) / Fold change /veh NKD1 (11759106_at) / RFU SRD5A1 (11742802_a_at) / Fold change /veh SRD5A1 (11742802_a_at) / RFU TPSAB1 /// TPSB2 (11721975_s_at) / Fold change /veh TPSAB1 /// TPSB2 (11721975_s_at) / RFU GSTM3 (11746129_a_at) / Fold change /veh GSTM3 (11746129_a_at) / RFU IL23R (11737362_x_at) / Fold change /veh IL23R (11737362_x_at) / RFU TMEM51 (11727254_a_at) / Fold change /veh TMEM51 (11727254_a_at) / RFU PIWIL2 (11732686_x_at) / Fold change /veh PIWIL2 (11732686_x_at) / RFU ORM1 (11744905_x_at) / Fold change /veh ORM1 (11744905_x_at) / RFU CCDC152 (11743942_at) / Fold change /veh CCDC152 (11743942_at) / RFU ECM1 (11717891_a_at) / Fold change /veh ECM1 (11717891_a_at) / RFU IL23R (11748794_a_at) / Fold change /veh IL23R (11748794_a_at) / RFU TNFAIP8L3 (11732012_x_at) / Fold change /veh TNFAIP8L3 (11732012_x_at) / RFU MBOAT4 (11741988_at) / Fold change /veh MBOAT4 (11741988_at) / RFU 11764193_at / Fold change /veh 11764193_at / RFU TMEM53 (11763286_at) / Fold change /veh TMEM53 (11763286_at) / RFU MAGEB2 (11727129_at) / Fold change /veh MAGEB2 (11727129_at) / RFU TMEM200A (11744735_a_at) / Fold change /veh TMEM200A (11744735_a_at) / RFU CCDC152 (11751479_a_at) / Fold change /veh CCDC152 (11751479_a_at) / RFU FAM211A (11726209_a_at) / Fold change /veh FAM211A (11726209_a_at) / RFU RGS16 (11746705_a_at) / Fold change /veh RGS16 (11746705_a_at) / RFU VCAN (11755009_s_at) / Fold change /veh VCAN (11755009_s_at) / RFU RHOB (11743442_s_at) / Fold change /veh RHOB (11743442_s_at) / RFU RGS16 (11720943_a_at) / Fold change /veh RGS16 (11720943_a_at) / RFU RGS16 (11720944_at) / Fold change /veh RGS16 (11720944_at) / RFU, VPS4B / Fold change vs veh, VPS4B / RFU, CREB1 / Fold change vs veh, CREB1 / RFU, DNAJC13 / Fold change vs veh, DNAJC13 / RFU, GNAQ / Fold change vs veh, GNAQ / RFU, CDK5R1 / Fold change vs veh, CDK5R1 / RFU, ZRANB3 / Fold change vs veh, ZRANB3 / RFU, CUL4A / Fold change vs veh, CUL4A / RFU, CCNY / Fold change vs veh, CCNY / RFU, UFL1 / Fold change vs veh, UFL1 / RFU, COG3 / Fold change vs veh, COG3 / RFU, DIAPH2 / Fold change vs veh, DIAPH2 / RFU, SKA2 / Fold change vs veh, SKA2 / RFU, AFF3 / Fold change vs veh, AFF3 / RFU, LMF1 / Fold change vs veh, LMF1 / RFU, IPO11 / Fold change vs veh, IPO11 / RFU, DFFB / Fold change vs veh, DFFB / RFU, FOXP1 / Fold change vs veh, FOXP1 / RFU, CARD8 / Fold change vs veh, CARD8 / RFU, STRN3 / Fold change vs veh, STRN3 / RFU, ADK / Fold change vs veh, ADK / RFU, RASSF2 / Fold change vs veh, RASSF2 / RFU, WIPF1 / Fold change vs veh, WIPF1 / RFU, LARP1B / Fold change vs veh, LARP1B / RFU, RASA1 / Fold change vs veh, RASA1 / RFU, RB1 / Fold change vs veh, RB1 / RFU, PPFIA1 / Fold change vs veh, PPFIA1 / RFU, MAT2A / Fold change vs veh, MAT2A / RFU, CCT5 / Fold change vs veh, CCT5 / RFU, WDR92 / Fold change vs veh, WDR92 / RFU, CUX1 / Fold change vs veh, CUX1 / RFU, TTC7A / Fold change vs veh, TTC7A / RFU, TMEM135 / Fold change vs veh, TMEM135 / RFU, DEPTOR / Fold change vs veh, DEPTOR / RFU, CPM / Fold change vs veh, CPM / RFU, DNAJB6 / Fold change vs veh, DNAJB6 / RFU, CACNA2D3 / Fold change vs veh, CACNA2D3 / RFU, DTX4 / Fold change vs veh, DTX4 / RFU, TFCP2 / Fold change vs veh, TFCP2 / RFU, GMCL1 /// GMCL1P1 / Fold change vs veh, GMCL1 /// GMCL1P1 / RFU, AEBP2 / Fold change vs veh, AEBP2 / RFU, SNHG1 /// SNORD22 /// SNORD25 /// SNORD26 /// SNORD27 /// SNORD28 /// SNORD29 /// SNORD31 / Fold change vs veh, SNHG1 /// SNORD22 /// SNORD25 /// SNORD26 /// SNORD27 /// SNORD28 /// SNORD29 /// SNORD31 / Fold change (Aza/veh), C12orf56 (ProbeSet 11735607_a_at) / Fold change (ACY-1035/veh), C12orf56 (ProbeSet 11735607_a_at) / Fold change (Aza/veh), FGFR1OP (ProbeSet 11751329_s_at) / Fold change (ACY-1035/veh), FGFR1OP (ProbeSet 11751329_s_at) / Fold change (Aza/veh), VPS36 (ProbeSet 11739960_a_at) / Fold change (ACY-1035/veh), VPS36 (ProbeSet 11739960_a_at) / RFU SYPL1 (11715823_x_at) / Fold change /veh SYPL1 (11715823_x_at) / RFU IGFBP7 (11715501_s_at) / Fold change /veh IGFBP7 (11715501_s_at) / RFU REEP3 (11722064_at) / Fold change /veh REEP3 (11722064_at) / RFU IGLL1 (11728026_x_at) / Fold change /veh IGLL1 (11728026_x_at): dose or concentration left out as unconfirmed. Conditions: ProbeSet 11724877_a_at; LIST D.

As to `Nc1ncn([C@@H]2O[C@H](CO)[C@@H](O)[C@H]2O)c(=O)n1` [azacitidine], the “RFU, AEBP2” value came out at 23.96 RFU.
